Test [1] has as its target FGFR4 (Homo sapiens (Human), UniProt P22455). In words: Inhibitory activity on kinase FGFR4 (Caliper mobility shift). The test is classed as biochemical. Here is the method:
(1). Preparation of 1×Kinase buffer; (2) Preparation of the gradient concentrations of the compounds: the concentration of the compounds to be tested started from 10 μM, which was 3-fold diluted to prepare 10 dilutions, and then tested in duplicated wells. The compounds were 100-fold serially diluted into 10 dilutions with different final concentrations in 96-well plates, each of which was further diluted with 1×Kinase buffer to prepare an intermediate dilution having a concentration of 5 times the final concentration; (3) adding 5 μL of each of the prepared compound solution into the compound wells of 384-well plates, and each concentration set single well; adding 5 μL of 5% DMSO into negative control wells and positive control wells respectively; (4) preparing a kinase solution having a concentration of 2.5 times the final concentration with 1×kinase buffer; (5) adding 10 μL of kinase solution at a concentration of 2.5 times the final concentration into the compound wells and the positive control wells respectively; and adding 10 μL of 1×Kinase buffer into the negative control wells; (6) centrifuging at 1000 rpm for 30 seconds, and incubating at room temperature for 10 minutes after shaking and mixing evenly; (7) preparing a mixed solution of ATP and Kinase substrate 22 having a concentration of 2.5 times the final concentration with 1×Kinase Buffer; (8) adding 10 μL of the mixed solution of ATP and substrate at a concentration of 2.5 times the final concentration to initiate the reaction; (9) Centrifuging the 384-well plates at 1000 rpm for 30 seconds, and incubating at 28° C. for corresponding time respectively after shaking and mixing; (10) adding 30 μL of stop detection solution to stop the kinase reaction, centrifuging at 1000 rpm for 30 seconds, and shaking and mixing the mixture evenly; (11) reading the conversion rate by Caliper Ezreader II. The dose-effect curve was fitted by the log (inhibitor) vs. response-variable slope of GraphPad Prism 5 with the log value of concentration as the X axis and the percentage inhibition rate as the Y axis, then the IC50 value of each compound on the enzyme activity was obtained.

In test [2] the test system is xenograft tumors. In words: Xenograft tumor growth in nude mice. To be noted: oral, daily for three weeks, lower dose (even less than 20 mg/kg). The test is classed as in vivo. The method, then:
1. The tumor tissue in vigorous growth period was cut into about 1.5 mm^3, and subcutaneously inoculated into the right armpit of nude mice under sterile condition. The diameter of the subcutaneous transplanted tumors in nude mice was measured with vernier caliper, and the animals were randomly divided into groups when the average volume of the tumor reached about 130 mm^3. The embodiment compounds (prepared to the desired concentration with water for injection containing 1% Tween 80 for later use) were orally administered at a predetermined dose every day for three weeks, while a same amount of menstruum was administered in the menstruum control group. During the whole experiment, the diameter of the xenograft tumor was measured twice a week and the weight of the mice was weighed at the same time. The tumor volume (TV) was calculated by the formula: TV=½×a×b^2, where a and b represent length and width respectively. According to the measured results, the relative tumor volume (RTV) was calculated by the formula: RTV=Vt/V0, where V0 was the tumor volume measured when the mice were divided into cages for administration (i.e., d0) and Vt was the tumor volume at each measurement. […]

Molecules are shown by their SMILES. Where two headings read alike, the source gives them in different places.

What is called IC50 is the concentration needed to halve the response being measured.

FGFR4, sequence (P22455 22-802): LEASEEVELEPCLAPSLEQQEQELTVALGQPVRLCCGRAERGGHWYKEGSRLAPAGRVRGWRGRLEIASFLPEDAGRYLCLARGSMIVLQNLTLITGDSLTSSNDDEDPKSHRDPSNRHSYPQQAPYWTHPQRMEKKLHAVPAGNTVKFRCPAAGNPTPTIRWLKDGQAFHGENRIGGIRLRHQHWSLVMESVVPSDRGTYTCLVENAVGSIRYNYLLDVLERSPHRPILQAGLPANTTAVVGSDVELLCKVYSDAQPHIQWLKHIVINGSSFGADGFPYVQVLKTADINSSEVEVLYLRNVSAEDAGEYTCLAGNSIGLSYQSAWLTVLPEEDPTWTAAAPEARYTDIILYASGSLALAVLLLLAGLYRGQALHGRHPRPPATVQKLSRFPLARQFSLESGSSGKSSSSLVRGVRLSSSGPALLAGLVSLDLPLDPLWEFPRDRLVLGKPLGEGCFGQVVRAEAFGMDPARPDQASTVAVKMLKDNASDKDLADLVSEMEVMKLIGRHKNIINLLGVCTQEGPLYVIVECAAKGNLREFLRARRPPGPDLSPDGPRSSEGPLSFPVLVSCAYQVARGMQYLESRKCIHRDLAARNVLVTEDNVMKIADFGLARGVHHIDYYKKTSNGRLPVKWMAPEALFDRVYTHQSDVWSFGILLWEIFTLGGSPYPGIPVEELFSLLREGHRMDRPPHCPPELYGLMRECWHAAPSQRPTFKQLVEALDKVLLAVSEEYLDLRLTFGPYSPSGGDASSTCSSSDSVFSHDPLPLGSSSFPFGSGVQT

Take `C=CC(=O)N1CCN(CCCc2cn3c(n2)c(-c2c(Cl)c(OC)cc(OC)c2Cl)cc2cnc(NC)nc23)CC1` [Embodiment 3, 1-(4-(3-(6-(2,6-dichloro-3,5-dimethoxyaniline)-2-(methylamine)imidazo[1′,2′:1,6]pyrido[2,3-d]pyrimidin-8-yl)propyl)piperazine-1-yl)prop-2-en-1-one]: the IC50 in test [1] (read-out: FGFR4 IC50) is less than 20 nM; in test [1] (read-out: IC50 of inhibitory activity on FGFR4), less than 1 nM. In addition, the anti-tumor rate result in test [2] is “more than 80%”.

The values are drawn from patent publication US11267815B2, “Class of amino-substituted nitrogen-containing fused ring compounds, preparation method therefor, and use thereof” (SHANGHAI RINGENE BIOPHARMA CO., LTD., priority 2017, dated 2022).
